{
  "source": "patent US12180172B1",
  "about": "“[3-(4-Methoxyphenyl)-1,2,4-oxadiazol-5-yl]methanol as an antitumor and antimicrobial compound” (KING FAISAL UNIVERSITY, priority 2023, dated 2024)",
  "type_in_all_cases": "cell-based",
  "key": {"Bacillus cereus": {"test_system": "Bacillus cereus", "test": "Agar plate disc-diffusion, Bacillus cereus", "conditions": "gram positive; disc 10 μL of 10 mg/mL in DMSO, 37° C., 48 h", "procedure": "(§1) The antimicrobial properties of the synthesized compounds were studied by the method of agar plate disc-diffusion. Sterilized filter papers (6 mm in diameter) were wetted with 10 μL of a solution of each compound to be tested, containing 10 mg/mL in DMSO, and the discs were allowed to air dry. The discs were then placed onto the surface of agar plates (nutrient agar for bacteria and Sabouraud's dextrose agar for fungi) seeded with the test organism. Each plate contained 15 mL of the agar medium, previously seeded with 0.2 mL of the broth culture of each organism pregrown for 18 h. The plates were incubated at 37° C. for 48 h, and 72 h for fungi. The inhibition zones were measured in mm. Discs impregnated with DMSO were used as a control, and its inhibition zone was subtracted from the tested compound actual inhibition zone."}, "Escherichia coli": {"test_system": "Escherichia coli", "test": "Agar plate disc-diffusion, Escherichia coli", "conditions": "gram-negative; disc 10 μL of 10 mg/mL in DMSO, 37° C., 48 h", "procedure": "as §1"}, "[1]": {"test_system": "human osteosarcoma cells (MG-63)", "test": "Cytotoxicity by SRB assay, MG-63", "conditions": "MG-63 cells, 0.01 μM to 100 μM for 72 h", "procedure": "(§2) The human prostate cancer cells (PC3) and human osteosarcoma cells (MG-63) were obtained from Nawah Scientific Inc. (Mokatam, Cairo, Egypt) and cultured in DMEM (Dulbecco's modified eagle's medium), Gibco, USA, supplemented with fetal bovine serum (FBS) at a concentration of 10% and 100 U/mL of penicillin and streptomycin (PS). The Cells were incubated at 37° C. in a humidified environment that contained 5% CO2. Cells were seeded in 96-well plates as aliquots of 100 μL cell suspension and incubated in a complete media for 24 h. afterward, cells were treated with [3-(4-methoxyphenyl)-1,2,4-oxadiazol-5-yl]methanol at diverse concentrations ranging from 0.01 μM to 100 μM for 72 h. Then, cells were fixed at 4° C. for one hour with 150 μL of 10% trichloroacetic acid (TCA). After washing the cells five times with distilled water, 70 μL of sulforhodamine (SRB) solution (0.4% w/v) was added and incubated for 10 min at room temperature in a dark place. […] Then, 150 μL of Tris pH 10.5 (10 mM) was added, and the absorbance was measured at 540 nm using a BMG LABTECH®-FLUOstar Omega microplate reader (Ortenberg, Germany). Half maximal inhibitory concentrations (IC50) values were calculated for each experiment using GraphPad Prism 6 software. […] The inhibition was calculated using the following equation: Inhibition %=100−Average Viability"}, "Aspergillus flavus": {"test_system": "Aspergillus flavus", "test": "Agar plate disc-diffusion, Aspergillus flavus", "conditions": "fungus; disc 10 μL of 10 mg/mL in DMSO, 72 h", "procedure": "as §1"}, "Pseudomonas aeruginosa": {"test_system": "Pseudomonas aeruginosa", "test": "Agar plate disc-diffusion, Pseudomonas aeruginosa", "conditions": "gram-negative; disc 10 μL of 10 mg/mL in DMSO, 37° C., 48 h", "procedure": "as §1"}, "Staphylococcus aureus": {"test_system": "Staphylococcus aureus", "test": "Agar plate disc-diffusion, Staphylococcus aureus", "conditions": "gram positive; disc 10 μL of 10 mg/mL in DMSO, 37° C., 48 h", "procedure": "as §1"}, "[2]": {"test_system": "human prostate cancer cells (PC3)", "test": "Cytotoxicity by SRB assay, PC3", "conditions": "0.01 μM to 100 μM for 72 h", "procedure": "as §2"}, "[3]": {"test_system": "Chrysosporium keratinophilum", "test": "Agar plate disc-diffusion, Chrysosporium keratinophilum", "conditions": "fungus; disc 10 μL of 10 mg/mL in DMSO, 72 h", "procedure": "as §1"}},
  "data": [
    {"compound": "COc1ccc(-c2noc(CO)n2)cc1", "note": "[[3-(4-methoxyphenyl)-1,2,4-oxadiazol-5-yl]methanol]", "values": [
      {"measurement": "antibacterial activity", "setting": "Bacillus cereus", "value": "high antimicrobial activities"},
      {"measurement": "antibacterial activity", "setting": "Escherichia coli", "value": "high antimicrobial activities"},
      {"measurement": "antiproliferative activity", "setting": "[1]", "value": "excellent antiproliferative activities"},
      {"measurement": "antifungal activity", "setting": "Aspergillus flavus", "value": "high antimicrobial activities"},
      {"measurement": "antibacterial activity", "setting": "Pseudomonas aeruginosa", "value": "high antimicrobial activities"},
      {"measurement": "antibacterial activity", "setting": "Staphylococcus aureus", "value": "high antimicrobial activities"},
      {"measurement": "antiproliferative activity", "setting": "[2]", "value": "excellent antiproliferative activities"},
      {"measurement": "antifungal activity", "setting": "[3]", "value": "high antimicrobial activities"}
    ]}
  ]
}
